Experiments:
HIV-1 strain YU2 = experiment: HIV-1 p24 production in infected monocyte derived macrophages (ELISA); format: cell-based; conditions: Human immunodeficiency virus 1, Primary macrophage; primary macrophages infected with Yu-2, at 0.1 μM; read-out: inhibition levels of virus replication (p24)
Text: FIG. 1. Potency of quinoline derivatives to inhibit HIV-1 production in PBMC- and macrophages-infected cells. […] Each point represents 6 donors. B) HIV-1 strain YU2 was used to infect triplicate of monocyte derived-macrophages from different donors in the absence or presence of increasing concentrations of Compound 22. […] Each point represents 8 donors. To generate monocyte derived macrophages (MDMs), monocytes were isolated using CD14 microbeads (catalog no. 130-050-201; Miltenyi) and cultured in X-VIVO10 medium (Lonza) supplemented with GM-CSF 1000 U/ml and M-CSF 100 ng/ml for 6 days. Monocytes were seeded at a cell count of 50,000 cells per well in a 96 well plate. After 6 days medium was replaced with X-VIVO10 w/o Cytokines. After 2 days Macrophages were treated with Compound 22 and/or its N-glucuronide metabolite o/n and next day infected with Yu-2 virus for 6 hrs, washed with PBS and cultured in medium containing the compounds for 12 days. Supernatant for p24 Elisa was collected 2 times a week. Cells were treated with 0.01 μM up to 30 μM and p24 antigen levels were monitored in culture supernatant over a 12 day period. Cell culture supernatant HIV p24 titration was performed by ELISA with Ingen Innotest kit (Ingen Ref 80564) according to the manufacturer's instructions.

HIV-1 = conditions: human PBMCs, increasing drug pressure
Experimental: Resistance to Compound 22 was tested on human PBMCs and compared to current therapies. […] Various classes of antiviral agents can affect the life cycle of HIV-1 in different manners. […] The selection of drug resistant mutants in vitro can be readily accomplished by maintaining the virus in a state of sub-optimal growth, regulated by slowly increasing the amount of drug pressure applied. This technique mimics the consequences of drug therapy in patients. Therefore, in this way, novel compounds can be assessed for their selection profile in order to evaluate the likelihood of emergence of HIV-1 drug resistance in future clinical trials. In addition, combinations of drugs can be investigated in the same manner.

SMILES	inhibition at 0.1 µM (HIV-1 strain YU2)	Time of Selection (weeks) (HIV-1)
O=C(O)[C@H]1O[C@@H](N(c2ccc(OC(F)(F)F)cc2)c2ccc3cccc(Cl)c3n2)[C@H](O)[C@@H](O)[C@@H]1O [N-glucuronide metabolite]	≤ 90%	–
C[C@H](Cn1cnc2c(N)ncnc21)OCP(=O)(O)O [Tenofovir, reference compound]	–	12 weeks
Cc1ccnc2c1NC(=O)c1cccnc1N2C1CC1 [Nevirapine, reference compound]	–	3 weeks

From US10806729B2, “Quinoline derivatives for use in the treatment or prevention of viral infection” (ABIVAX, priority 2015, dated 2020)
